Results on five compounds are retold here after ChEMBL document CHEMBL1125224, “Examination of HIV-1 protease secondary structure specificity using conformationally constrained inhibitors” (J Med Chem, 1991).

pIC50: −log10 of the molar value.

What is called pIC50 is −log10 of the IC50, conventionally taken in molar units.

In the assay the target is Human immunodeficiency virus type 1 protease (Human immunodeficiency virus 1, UniProt Q72874). The assay can be described thus: Concentration required to inhibit HIV-1 protease activity calculated from plots of % inhibition vs inhibitor concentration.
In the case of `CC[C@H](C)[C@H](NC(=O)C[C@H](O)[C@H](CC(C)C)NC(=O)CC1C=CCN2C(=O)CCC(CNCc3ccccc3)C(=O)N12)C(=O)N[C@@H](Cc1ccccc1)C(=O)OC` (stereo not given in full), the pIC50 was 3.85. Consider `CC[C@H](C)[C@H](NC(=O)C[C@H](O)[C@H](CC1CCCCC1)NC(=O)CC1C=CCN2C(=O)CCC(CNCc3ccccc3)C(=O)N12)C(=O)N[C@@H](Cc1ccccc1)C(=O)O` (stereo not given in full), for which the pIC50 is 3.44. For `CCC(C)[C@H](NC(=O)C[C@H](O)[C@H](CC(C)C)NC(=O)CC1C=CCN2C(=O)CCC(CNCc3ccccc3)C(=O)N12)C(=O)N[C@@H](Cc1ccccc1)C(N)=O` (stereo not given in full) the value was 4.68; for `CCC(C)[C@H](NC(=O)C[C@H](O)[C@H](Cc1ccccc1)NC(=O)CC1C=CCN2C(=O)CCC(CNCc3ccccc3)C(=O)N12)C(=O)N[C@@H](Cc1ccccc1)C(=O)OC` (stereo not given in full), 3.46. As to `CCC(C)[C@H](NC(=O)C[C@H](O)[C@H](CC1CCCCC1)NC(=O)CC1CCCN2C(=O)CCC(CN)C(=O)N12)C(=O)N[C@@H](Cc1ccccc1)C(N)=O` (stereo not given in full), the pIC50 was 7.59.
